Calls of active or inactive are those of the source. The calls are words filed in the database; no cut-off is given here.
Legend:
[1] = molecular target: T1, Polyamine deacetylase HDAC10 (Homo sapiens) (UniProt Q969S8); assay: Inhibition of HDAC10 (unknown origin) assessed as residual activity at 5.08 x 10^-10M (reference value: 101.54%); conditions: dose 5.08 10^-10M
T1 sequence (whole entry): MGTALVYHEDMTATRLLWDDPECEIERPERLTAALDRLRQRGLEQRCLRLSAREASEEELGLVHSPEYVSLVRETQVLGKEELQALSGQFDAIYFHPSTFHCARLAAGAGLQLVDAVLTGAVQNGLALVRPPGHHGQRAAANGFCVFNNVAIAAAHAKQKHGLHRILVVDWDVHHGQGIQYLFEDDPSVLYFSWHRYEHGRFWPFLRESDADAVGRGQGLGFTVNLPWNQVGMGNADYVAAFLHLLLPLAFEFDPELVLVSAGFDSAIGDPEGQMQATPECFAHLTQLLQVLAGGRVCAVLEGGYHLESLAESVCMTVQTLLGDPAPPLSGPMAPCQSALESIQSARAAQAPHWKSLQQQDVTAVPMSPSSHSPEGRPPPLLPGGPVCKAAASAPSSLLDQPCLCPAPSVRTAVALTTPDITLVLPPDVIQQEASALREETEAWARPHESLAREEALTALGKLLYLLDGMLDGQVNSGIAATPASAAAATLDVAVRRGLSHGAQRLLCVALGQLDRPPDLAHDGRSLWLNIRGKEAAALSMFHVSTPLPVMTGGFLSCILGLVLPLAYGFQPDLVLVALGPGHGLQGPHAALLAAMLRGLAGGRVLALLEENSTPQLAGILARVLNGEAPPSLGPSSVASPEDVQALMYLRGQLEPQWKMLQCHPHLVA

Histone deacetylase 2 [2] = molecular target: T2, Histone deacetylase 2 (Homo sapiens, UniProt Q92769); assay: Inhibition of HDAC2 (unknown origin) assessed as residual activity at 3.70 x 10^-7M (reference value: 99.81%); conditions: dose 3.7 10^-7M
HL-60 [3] = assay: Induction of cell cycle arrest in G0/G1 phase in human HL-60 cells at 0.5 to 1 times IC50 by PI staining based flow cytometry analysis; type: functional
[4] = molecular target: Histone deacetylase 5 (Homo sapiens) (UniProt Q9UQL6); assay: Inhibition of HDAC5 (unknown origin) assessed as residual activity at 1 x 10^-5M (reference value: 100%); conditions: dose 1.0 10^-5M
HL-60 [5] = assay: Downregulation of PARP-2 protein expression in human HL-60 cells by Western blot analysis; type: functional, cell-based
Histone deacetylase 2 [6] = molecular target: T2, Histone deacetylase 2; assay: Inhibition of HDAC2 (unknown origin) assessed as residual activity at 4.12 x 10^-8M (reference value: 99.81%); conditions: dose 4.12 10^-8M
[7] = molecular target: Histone deacetylase 4 (Homo sapiens) (UniProt P56524); assay: Inhibition of HDAC4 (unknown origin) assessed as residual activity at 4.12 x 10^-8M (reference value: 98.90%); conditions: dose 4.12 10^-8M
Histone deacetylase 3 [8] = molecular target: T3, Histone deacetylase 3 (Homo sapiens, UniProt O15379); assay: Inhibition of HDAC3 (unknown origin) using p53 residues 379 to 382 [RHKK(Ac)] as fluorogenic substrate assessed as residual activity at 1.37 x 10^-8M (reference value: 103.08%); conditions: dose 1.37 10^-8M
[9] = molecular target: T1, Polyamine deacetylase HDAC10 (Homo sapiens); assay: Inhibition of HDAC10 (unknown origin) assessed as residual activity at 1.1 x 10^-6M (reference value: 101.54%); conditions: dose 1.1 10^-6M
[10] = molecular target: T4, Histone deacetylase 8 (Homo sapiens) (UniProt Q9BY41); assay: Inhibition of HDAC8 (unknown origin) assessed as residual activity at 1.52 x 10^-9M (reference value: 100%); conditions: dose 1.52 10^-9M
T4 sequence (whole entry): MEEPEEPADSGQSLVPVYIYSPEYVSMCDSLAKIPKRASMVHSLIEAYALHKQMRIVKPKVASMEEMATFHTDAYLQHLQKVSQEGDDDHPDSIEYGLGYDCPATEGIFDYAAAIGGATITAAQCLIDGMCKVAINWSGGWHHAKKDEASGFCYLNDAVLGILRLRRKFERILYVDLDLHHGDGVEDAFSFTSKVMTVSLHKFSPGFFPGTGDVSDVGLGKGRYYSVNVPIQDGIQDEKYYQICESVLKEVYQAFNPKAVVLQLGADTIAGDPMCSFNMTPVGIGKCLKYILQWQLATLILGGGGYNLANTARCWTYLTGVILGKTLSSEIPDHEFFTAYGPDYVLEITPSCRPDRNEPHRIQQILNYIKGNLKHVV

Histone deacetylase 2 [11] = molecular target: T2, Histone deacetylase 2; assay: Inhibition of HDAC2 (unknown origin) assessed as residual activity at 3.33 x 10^-6M (reference value: 99.81%); conditions: dose 3.33 10^-6M
HL-60 [12] = assay: Induction of apoptosis in human HL-60 cells assessed as DNA fragmentation at 0.5 to 1 times IC50 by DAPI staining based microscopic analysis; type: functional, cell-based
Histone deacetylase 1 [13] = molecular target: T5, Histone deacetylase 1 (Homo sapiens, UniProt Q13547); assay: Inhibition of HDAC1 (unknown origin) using p53 residues 379 to 382 [RHKK(Ac)] as fluorogenic substrate assessed as residual activity at 3.33 x 10^-6M (reference value: 98.06%); conditions: dose 3.33 10^-6M
Histone deacetylase 3 [14] = molecular target: T3, Histone deacetylase 3; assay: Inhibition of HDAC3 (unknown origin) using p53 residues 379 to 382 [RHKK(Ac)] as fluorogenic substrate assessed as residual activity at 1.23 x 10^-7M (reference value: 103.08%); conditions: dose 1.23 10^-7M
MDA-MB-231 = assay: Antiproliferative activity against human MDA-MB-231 cells assessed as inhibition of cell growth by MTT assay; type: functional, cell-based
Histone deacetylase 3 [15] = molecular target: T3, Histone deacetylase 3; assay: Inhibition of HDAC3 (unknown origin) using p53 residues 379 to 382 [RHKK(Ac)] as fluorogenic substrate assessed as residual activity at 1 x 10^-5M (reference value: 103.08%); conditions: dose 1.0 10^-5M
Histone deacetylase 2 [16] = molecular target: T2, Histone deacetylase 2; assay: Inhibition of HDAC2 (unknown origin) assessed as residual activity at 4.57 x 10^-9M (reference value: 99.81%); conditions: dose 4.57 10^-9M
Histone deacetylase 1 [17] = molecular target: T5, Histone deacetylase 1; assay: Inhibition of HDAC1 (unknown origin) using p53 residues 379 to 382 [RHKK(Ac)] as fluorogenic substrate assessed as residual activity at 1 x 10^-5M (reference value: 98.06%); conditions: dose 1.0 10^-5M
HL-60 [18] = assay: Upregulation of gammaH2AX protein expression in human HL-60 cells at 0.5 to 1 times IC50 by Western blot analysis; type: functional, cell-based
SiHa = assay: cells; type: functional, cell-based; conditions: Homo sapiens
Description: Antiproliferative activity against human SiHa cells assessed as inhibition of cell growth by MTT assay

[19] = molecular target: Histone deacetylase 4 (Homo sapiens) (UniProt P56524); assay: Inhibition of HDAC4 (unknown origin) assessed as residual activity at 1.52 x 10^-9M (reference value: 98.90%); conditions: dose 1.52 10^-9M

T3 sequence (O15379 whole entry, the tested form may be a part): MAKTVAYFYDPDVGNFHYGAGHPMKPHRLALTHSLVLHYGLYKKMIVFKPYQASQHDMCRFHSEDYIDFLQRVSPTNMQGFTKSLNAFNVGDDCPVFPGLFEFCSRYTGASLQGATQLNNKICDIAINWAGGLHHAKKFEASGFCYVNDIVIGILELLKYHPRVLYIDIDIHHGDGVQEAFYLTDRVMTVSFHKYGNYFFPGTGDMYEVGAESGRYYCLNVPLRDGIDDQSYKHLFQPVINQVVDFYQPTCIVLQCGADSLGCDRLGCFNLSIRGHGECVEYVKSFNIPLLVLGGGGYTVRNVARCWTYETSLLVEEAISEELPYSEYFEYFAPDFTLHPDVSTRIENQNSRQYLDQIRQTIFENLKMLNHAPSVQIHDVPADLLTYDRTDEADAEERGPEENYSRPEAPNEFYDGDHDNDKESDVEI
T2 sequence (Q92769 whole entry): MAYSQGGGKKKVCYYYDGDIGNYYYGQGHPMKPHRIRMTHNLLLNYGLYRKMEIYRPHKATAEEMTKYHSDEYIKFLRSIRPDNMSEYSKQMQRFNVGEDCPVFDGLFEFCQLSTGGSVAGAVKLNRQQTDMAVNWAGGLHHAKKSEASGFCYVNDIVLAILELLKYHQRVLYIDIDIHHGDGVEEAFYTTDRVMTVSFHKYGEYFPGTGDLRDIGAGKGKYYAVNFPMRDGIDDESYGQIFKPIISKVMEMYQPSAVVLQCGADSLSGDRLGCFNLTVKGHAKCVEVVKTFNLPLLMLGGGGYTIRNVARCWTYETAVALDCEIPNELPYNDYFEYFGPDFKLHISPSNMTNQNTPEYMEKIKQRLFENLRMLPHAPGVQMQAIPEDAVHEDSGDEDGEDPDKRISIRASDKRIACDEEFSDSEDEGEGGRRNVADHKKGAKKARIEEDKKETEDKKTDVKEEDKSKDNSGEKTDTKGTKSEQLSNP
Sequence of Histone deacetylase 4 (Homo sapiens) (P56524 whole entry, the tested form may be a part): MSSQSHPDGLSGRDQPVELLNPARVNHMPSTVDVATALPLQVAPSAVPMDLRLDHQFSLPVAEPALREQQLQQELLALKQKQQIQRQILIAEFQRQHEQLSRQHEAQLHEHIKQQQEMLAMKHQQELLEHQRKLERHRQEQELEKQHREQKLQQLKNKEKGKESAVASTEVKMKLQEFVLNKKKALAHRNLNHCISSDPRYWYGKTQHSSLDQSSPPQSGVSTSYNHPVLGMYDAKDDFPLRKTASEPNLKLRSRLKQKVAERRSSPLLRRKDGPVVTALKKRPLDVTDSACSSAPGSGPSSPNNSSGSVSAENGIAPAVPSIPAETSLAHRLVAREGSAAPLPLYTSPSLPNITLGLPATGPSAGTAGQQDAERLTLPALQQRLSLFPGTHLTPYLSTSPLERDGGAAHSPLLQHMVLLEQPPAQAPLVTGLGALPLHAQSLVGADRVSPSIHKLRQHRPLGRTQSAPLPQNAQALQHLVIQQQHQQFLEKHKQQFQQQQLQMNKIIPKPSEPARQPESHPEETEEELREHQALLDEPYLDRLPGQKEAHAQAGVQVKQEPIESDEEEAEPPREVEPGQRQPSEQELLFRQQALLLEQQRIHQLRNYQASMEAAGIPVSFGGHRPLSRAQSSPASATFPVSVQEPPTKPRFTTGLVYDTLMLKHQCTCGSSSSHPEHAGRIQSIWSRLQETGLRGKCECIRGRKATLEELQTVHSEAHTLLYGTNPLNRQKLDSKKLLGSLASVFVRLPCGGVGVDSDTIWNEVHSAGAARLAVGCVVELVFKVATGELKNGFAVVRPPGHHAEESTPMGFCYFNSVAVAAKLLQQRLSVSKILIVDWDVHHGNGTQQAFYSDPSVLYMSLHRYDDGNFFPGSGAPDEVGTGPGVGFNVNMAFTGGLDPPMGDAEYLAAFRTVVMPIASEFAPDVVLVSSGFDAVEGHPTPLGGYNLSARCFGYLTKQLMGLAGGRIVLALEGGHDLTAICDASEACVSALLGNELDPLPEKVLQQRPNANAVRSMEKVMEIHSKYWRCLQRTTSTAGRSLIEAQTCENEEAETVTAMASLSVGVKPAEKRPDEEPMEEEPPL
T5 sequence (Q13547 whole entry, the tested form may be a part): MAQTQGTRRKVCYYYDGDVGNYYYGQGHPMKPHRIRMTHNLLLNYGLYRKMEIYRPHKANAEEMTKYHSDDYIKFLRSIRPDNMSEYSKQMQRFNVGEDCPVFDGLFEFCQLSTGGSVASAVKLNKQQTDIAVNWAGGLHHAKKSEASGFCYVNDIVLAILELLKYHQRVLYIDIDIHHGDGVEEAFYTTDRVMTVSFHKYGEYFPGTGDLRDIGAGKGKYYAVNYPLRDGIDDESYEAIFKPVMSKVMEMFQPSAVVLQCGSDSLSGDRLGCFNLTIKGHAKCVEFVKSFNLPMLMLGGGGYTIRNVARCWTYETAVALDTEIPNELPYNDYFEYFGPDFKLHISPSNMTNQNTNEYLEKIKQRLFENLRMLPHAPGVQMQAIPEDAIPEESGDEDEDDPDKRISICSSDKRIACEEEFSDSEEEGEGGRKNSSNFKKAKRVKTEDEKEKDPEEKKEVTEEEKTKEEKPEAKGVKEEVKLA
Sequence of Histone deacetylase 5 (Homo sapiens) (Q9UQL6 whole entry): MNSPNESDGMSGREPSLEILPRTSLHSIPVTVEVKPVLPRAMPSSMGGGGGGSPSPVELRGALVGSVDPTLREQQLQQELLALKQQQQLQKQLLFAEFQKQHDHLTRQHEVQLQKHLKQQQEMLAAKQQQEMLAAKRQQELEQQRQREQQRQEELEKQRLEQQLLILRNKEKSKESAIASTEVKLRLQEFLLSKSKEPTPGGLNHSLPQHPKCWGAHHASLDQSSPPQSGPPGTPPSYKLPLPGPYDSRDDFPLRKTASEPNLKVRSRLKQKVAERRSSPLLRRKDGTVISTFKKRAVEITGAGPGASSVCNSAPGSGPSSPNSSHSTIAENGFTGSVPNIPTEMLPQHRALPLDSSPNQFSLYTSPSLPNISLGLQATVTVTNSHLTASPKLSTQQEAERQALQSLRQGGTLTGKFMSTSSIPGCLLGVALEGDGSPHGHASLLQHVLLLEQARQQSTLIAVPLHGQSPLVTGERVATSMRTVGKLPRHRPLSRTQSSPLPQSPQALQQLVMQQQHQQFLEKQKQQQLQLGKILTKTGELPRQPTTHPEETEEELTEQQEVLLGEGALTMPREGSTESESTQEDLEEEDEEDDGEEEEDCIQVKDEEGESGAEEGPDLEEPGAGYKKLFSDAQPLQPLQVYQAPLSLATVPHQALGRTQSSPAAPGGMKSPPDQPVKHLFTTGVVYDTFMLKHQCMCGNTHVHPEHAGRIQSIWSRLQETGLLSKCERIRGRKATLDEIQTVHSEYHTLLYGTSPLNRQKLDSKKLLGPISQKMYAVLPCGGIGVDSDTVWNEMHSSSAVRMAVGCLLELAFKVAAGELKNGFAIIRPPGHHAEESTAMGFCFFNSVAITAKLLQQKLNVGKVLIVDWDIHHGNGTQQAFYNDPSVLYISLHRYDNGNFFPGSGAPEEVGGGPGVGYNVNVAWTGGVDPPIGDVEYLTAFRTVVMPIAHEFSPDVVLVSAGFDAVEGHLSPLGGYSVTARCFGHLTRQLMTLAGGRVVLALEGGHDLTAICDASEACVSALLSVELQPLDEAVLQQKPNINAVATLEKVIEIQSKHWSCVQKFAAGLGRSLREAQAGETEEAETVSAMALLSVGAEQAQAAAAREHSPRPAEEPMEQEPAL

NC(=O)c1cccc2[nH]c(-c3ccc(NCc4ccc(C(=O)Nc5ccccc5N)cc4)cc3)nc12
Activity [1]: 101%
Activity (Histone deacetylase 2 [2]): 33.5%
Activity (HL-60 [3]): Dose-Dependent Effect
Activity [4]: 111%
Activity (HL-60 [5]): Active
Activity (Histone deacetylase 2 [6]): 69.7%
Activity [7]: 96%
Activity (Histone deacetylase 3 [8]): 110%
Activity [9]: 96.2%
Activity [10]: 103%
Activity (Histone deacetylase 2 [11]): 5.75%
Activity (HL-60 [12]): inactive
Activity (Histone deacetylase 1 [13]): 6.73%
Activity (Histone deacetylase 3 [14]): 84.1%
IC50 (MDA-MB-231): > 10 µM
Activity (Histone deacetylase 3 [15]): 20.7%
Activity (Histone deacetylase 2 [16]): 89.2%
Activity (Histone deacetylase 1 [17]): 12.3%
Activity (HL-60 [18]): Active
IC50 (SiHa): > 10 µM
Activity [19]: 94.7%

Source: ChEMBL document CHEMBL5550160, “Leveraging a rationally designed veliparib-based anilide eliciting anti-leukemic effects for the design of pH-responsive polymer nanoformulation” (Eur J Med Chem, 2024)
